The target in assay [1] is T1, aldose reductase (Homo sapiens, UniProt P15121). As to the kind of experiment: In vitro enzyme inhibitory assay against human aldose reductase. The format is biochemical. The conditions noted are these: AR inhibition, Epalrestat as positive control.
Assay [2] deals with T1, aldose reductase.
In the next assay the test system is AR. To be noted: read-out: IC50 (reported AR inhibition); Zopolrestat; cited from earlier work.

The values that follow come from paper PMC10361003 (Journal of Enzyme Inhibition and Medicinal Chemistry, 2023).

Structures are written as SMILES. pIC50: −log10 of the molar value.

As for `O=C(CN1C(=O)S/C(=C\c2ccc([N+](=O)[O-])cc2)C1=O)c1ccc([N+](=O)[O-])cc1` [Compound 5a, (Z)-5-(4-nitrobenzylidene)-3-(2-(4-nitrophenyl)-2-oxoethyl)thiazolidine-2,4-dione], on aldose reductase [1], the pIC50 (as a rule, the negative decadic logarithm of the IC50, by convention in mol/L) is 6.66. The same measure, in the same setting: next, `O=C(CN1C(=O)S/C(=C\c2ccc(Cl)cc2)C1=O)c1ccc([N+](=O)[O-])cc1` [Compound 5b, (Z)-5-(4-chlorobenzylidene)-3-(2-(4-nitrophenyl)-2-oxoethyl)thiazolidine-2,4-dione]: 6.34; `O=C(CN1C(=O)S/C(=C\c2ccc(Br)cc2)C1=O)c1ccc([N+](=O)[O-])cc1` [Compound 5c, (Z)-5-(4-bromobenzylidene)-3-(2-(4-nitrophenyl)-2-oxoethyl)thiazolidine-2,4-dione]: 6.31. Still for that read-out and setting: the result for `O=C(CN1C(=O)S/C(=C\c2ccc(F)cc2)C1=O)c1ccc([N+](=O)[O-])cc1` [Compound 5d, (Z)-5-(4-fluorobenzylidene)-3-(2-(4-nitrophenyl)-2-oxoethyl)thiazolidine-2,4-dione] reads 6.24. The same measure, in the same setting: the result for `Cc1ccc(/C=C2\SC(=O)N(CC(=O)c3ccc([N+](=O)[O-])cc3)C2=O)cc1` [Compound 5e, (Z)-5-(4-methylbenzylidene)-3-(2-(4-nitrophenyl)-2-oxoethyl)thiazolidine-2,4-dione] reads 6.26. As to `COc1ccc(/C=C2\SC(=O)N(CC(=O)c3ccc([N+](=O)[O-])cc3)C2=O)cc1` [Compound 5f, (Z)-5-(4-methoxybenzylidene)-3-(2-(4-nitrophenyl)-2-oxoethyl)thiazolidine-2,4-dione], on aldose reductase [1], the pIC50 is 6.55. The same measure, in the same setting: the result for `COc1cc(/C=C2\SC(=O)N(CC(=O)c3ccc([N+](=O)[O-])cc3)C2=O)cc(OC)c1OC` [Compound 5g, (Z)-3-(2-(4-nitrophenyl)-2-oxoethyl)-5-(3,4,5-trimethoxybenzylidene)thiazolidine-2,4-dione] reads 6.14; that for `O=C(CN1C(=O)S/C(=C\c2cccc([N+](=O)[O-])c2)C1=O)c1ccc([N+](=O)[O-])cc1` [Compound 5h, (Z)-5-(3-nitrobenzylidene)-3-(2-(4-nitrophenyl)-2-oxoethyl)thiazolidine-2,4-dione], 6.29. Regarding `O=C(CN1C(=O)S/C(=C\c2cccc(Br)c2)C1=O)c1ccc([N+](=O)[O-])cc1` [Compound 5k, (Z)-5-(3-bromobenzylidene)-3-(2-(4-nitrophenyl)-2-oxoethyl)thiazolidine-2,4-dione], the pIC50 against aldose reductase [1] was 6.39. Same read-out and setting: the result for `O=C1S/C(=C\c2ccc([N+](=O)[O-])cc2)C(=O)N1Cc1nc2ccccc2s1` [Compound 8a, (Z)-3-(benzo[d]thiazol-2-ylmethyl)-5-(4-nitrobenzylidene)thiazolidine-2,4-dione] reads 5.70. `O=C1S/C(=C\c2ccc(Cl)cc2)C(=O)N1Cc1nc2ccccc2s1` [Compound 8b, (Z)-3-(benzo[d]thiazol-2-ylmethyl)-5-(4-chlorobenzylidene)thiazolidine-2,4-dione] gave a pIC50 on aldose reductase [1] of 6.80. Further, on aldose reductase [2] (at 0.5 IC50), the “effect on Km” value was “slight reduction” and the “effect on Vmax” value is given as “significant reduction”. In addition, the “effect on Km and Vmax” value on aldose reductase [2] (at concentrations equal to IC50 and double of IC50) is recorded as “decreased significantly”.

Take `O=C1S/C(=C\c2ccc(Br)cc2)C(=O)N1Cc1nc2ccccc2s1` [Compound 8c, (Z)-3-(benzo[d]thiazol-2-ylmethyl)-5-(4-bromobenzylidene)thiazolidine-2,4-dione]: the pIC50 on aldose reductase [1] was 6.68. Still for that read-out and setting: the result for `O=C1S/C(=C\c2ccc(F)cc2)C(=O)N1Cc1nc2ccccc2s1` [Compound 8d, (Z)-3-(benzo[d]thiazol-2-ylmethyl)-5-(4-fluorobenzylidene)thiazolidine-2,4-dione] reads 6.48; that for `Cc1ccc(/C=C2\SC(=O)N(Cc3nc4ccccc4s3)C2=O)cc1` [Compound 8e, (Z)-3-(benzo[d]thiazol-2-ylmethyl)-5-(4-methylbenzylidene)thiazolidine-2,4-dione], 6.54. On the same count and under the same terms, the result for `COc1ccc(/C=C2\SC(=O)N(Cc3nc4ccccc4s3)C2=O)cc1` [Compound 8f, (Z)-3-(benzo[d]thiazol-2-ylmethyl)-5-(4-methoxybenzylidene)thiazolidine-2,4-dione] reads 6.03. Consider `COc1cc(/C=C2\SC(=O)N(Cc3nc4ccccc4s3)C2=O)cc(OC)c1OC` [Compound 8g, (Z)-3-(benzo[d]thiazol-2-ylmethyl)-5-(3,4,5-trimethoxybenzylidene)thiazolidine-2,4-dione], for which the pIC50 against aldose reductase [1] is 6.57. `COc1ccc(/C=C2\SC(=O)N(Cc3nc4ccccc4s3)C2=O)cc1OC` [Compound 8h, (Z)-3-(benzo[d]thiazol-2-ylmethyl)-5-(3,4-dimethoxybenzylidene)thiazolidine-2,4-dione] showed a pIC50 against aldose reductase [1] of 6.35. With `O=C(O)Cc1nn(Cc2nc3cc(C(F)(F)F)ccc3s2)c(=O)c2ccccc12` [Zopolrestat, 3,4-dihydro-4-oxo-3-[[5-(trifluoromethyl)-2-benzothiazolyl]methyl]-1-phthalazineacetic acid], the pIC50 in the assay on AR was 8.51.
